Source: patent US20240358693A1, “METHODS OF TREATING PAIN” (Aisa Pharma, Inc., priority 2023, published 2024)

System: participants with SSc-RP
Test: Average severity of weekly RP attacks (VAS 0-10 cm scale)
Assay type: in vivo, human
From the text: The absolute change in average severity of weekly RP attacks (VAS 0-10 cm scale) from baseline to the end of each Dosing Period was and will be a secondary outcome variable. The sponsor-developed participant-informed diary will be used to record data. Average severity of weekly RP attacks is defined as the total severity scores of RP attacks divided by total number of RP attacks within the last 7 days of each dosing period. Total severity scores of RP attacks during the last 7 days of screening period divided by the total number of RP attacks will be used as baseline for the analysis of all periods. The variable will be calculated similar to frequency data as before.

[1] = Cilnidipine 20 mg, ITT Population - Part A
[2] = Cilnidipine 20 mg, first Baseline RCS subgroup block (not named), ITT Part A
[3] = Cilnidipine 20 mg, first Baseline RCS subgroup block (not named), ITT Part A, score 0-10
[4] = Excluding Outliers, Cilnidipine 10 mg, first Baseline RCS subgroup block (not named), ITT Part A
[5] = Excluding Outliers, Cilnidipine 10 mg, first Baseline RCS subgroup block (not named), ITT Part A, score 0-10
[6] = Excluding Outliers, Cilnidipine 20 mg, first Baseline RCS subgroup block (not named), ITT Part A
[7] = Excluding Outliers, Cilnidipine 20 mg, first Baseline RCS subgroup block (not named), ITT Part A, score 0-10
[8] = Excluding Outliers, Pooled Cilnidipine 10 mg and Cilnidipine 10 mg + Tadalafil 5 mg, first Baseline RCS subgroup block (not named), ITT Part A
[9] = Excluding Outliers, Pooled Cilnidipine 10 mg and Cilnidipine 10 mg + Tadalafil 5 mg, first Baseline RCS subgroup block (not named), ITT Part A, score 0-10
[10] = Excluding Outliers, Pooled Cilnidipine 10 mg and Cilnidipine 10 mg + Tadalafil 5 mg, second Baseline RCS subgroup block (not named), ITT Part A
[11] = Excluding Outliers, Pooled Cilnidipine 10 mg and Cilnidipine 10 mg + Tadalafil 5 mg, second Baseline RCS subgroup block (not named), ITT Part A, score 0-10
[12] = Excluding Outliers, Pooled Cilnidipine 20 mg and Cilnidipine 20 mg + Tadalafil 5 mg, first Baseline RCS subgroup block (not named), ITT Part A
[13] = Excluding Outliers, Pooled Cilnidipine 20 mg and Cilnidipine 20 mg + Tadalafil 5 mg, first Baseline RCS subgroup block (not named), ITT Part A, score 0-10
[14] = Excluding Outliers, Pooled Cilnidipine 20 mg and Cilnidipine 20 mg + Tadalafil 5 mg, second Baseline RCS subgroup block (not named), ITT Part A
[15] = Excluding Outliers, Pooled Cilnidipine 20 mg and Cilnidipine 20 mg + Tadalafil 5 mg, second Baseline RCS subgroup block (not named), ITT Part A, score 0-10
[16] = Excluding Outliers, Pooled Cilnidipine, first Baseline RCS subgroup block (not named), ITT Part A
[17] = Excluding Outliers, Pooled Cilnidipine, first Baseline RCS subgroup block (not named), ITT Part A, score 0-10
[18] = Pooled (over cilnidipine doses), Excluding Outliers, ITT Population - Part A
[19] = Pooled (over cilnidipine doses), Excluding Outliers, by Baseline RCS, first subgroup, ITT Population - Part A
[20] = Pooled (over cilnidipine doses), ITT Population - Part A

In the case of `COCCOC(=O)C1=C(C)NC(C)=C(C(=O)OC/C=C/c2ccccc2)C1c1cccc([N+](=O)[O-])c1` (stereo not shown) [Cilnidipine, cilnidipine], the “Average Severity of Weekly RP Attacks (All Attacks), Change from Baseline, Median” value [1] is reported as −1.07, the “Average Severity of Weekly RP Attacks (All Attacks), Mean” value (“Average Severity … (All Attacks), Mean” for short) [1] is reported as 2.30 and the “Average Severity of Weekly RP Attacks (All Attacks), Median” value (“Average Severity … (All Attacks), Median” for short) [1] is reported as 2.30. The “Average Severity of Weekly RP Attacks (All Attacks), Percent Change from Baseline, Mean” value [1] was −27.26%, the “Average Severity of Weekly RP Attacks (All Attacks), Percent Change from Baseline, Median” value [1] was −27.26% and the “Average Severity of Weekly RP Attacks (All Attacks), Percent Change from Baseline, Mean” value [2] was −27.26%. For the same compound, the “Average Severity of Weekly RP Attacks (All Attacks), Percent Change from Baseline, Median” value [2] was −27.26%, the “Average Severity of Weekly RP Attacks (All Attacks), Change from Baseline, Mean” value [3] was −1.07 and the “Average Severity of Weekly RP Attacks (All Attacks), Change from Baseline, Median” value [3] was −1.07. The “Average Severity … (All Attacks), Mean” value [3] was 2.30, the “Average Severity … (All Attacks), Median” value [3] was 2.30 and the “Mean % reduction in severity” value (Cilnidipine (20 mg) (n = 3)) was 35.5%. The “Mean severity at baseline” value (Cilnidipine (20 mg) (n = 3)) was 3.7, the Severity (Cilnidipine (20 mg) (n = 3)) was −36% and the “Average Severity of Weekly RP Attacks (All Attacks), Percent Change from Baseline, Mean” value [4] was 0.55%. The “Average Severity of Weekly RP Attacks (All Attacks), Percent Change from Baseline, Median” value [4] was 0.55%, the “Average Severity of Weekly RP Attacks (All Attacks), Change from Baseline, Mean” value [5] was 0.02 and the “Average Severity of Weekly RP Attacks (All Attacks), Change from Baseline, Median” value [5] was 0.02. The “Average Severity … (All Attacks), Mean” value [5] was 3.05, the “Average Severity … (All Attacks), Median” value [5] was 3.05 and the “Average Severity of Weekly RP Attacks (All Attacks), Percent Change from Baseline, Mean” value [6] was −27.26%. The “Average Severity of Weekly RP Attacks (All Attacks), Percent Change from Baseline, Median” value [6] was −27.26%, the “Average Severity of Weekly RP Attacks (All Attacks), Change from Baseline, Mean” value [7] was −1.07 and the “Average Severity of Weekly RP Attacks (All Attacks), Change from Baseline, Median” value [7] was −1.07. The “Average Severity … (All Attacks), Mean” value [7] was 2.30, the “Average Severity … (All Attacks), Median” value [7] was 2.30 and the “Average Severity of Weekly RP Attacks (All Attacks), Percent Change from Baseline, Mean” value [8] was −23.94%. For the same compound, the “Average Severity of Weekly RP Attacks (All Attacks), Percent Change from Baseline, Median” value [8] was −23.94%, the “Average Severity of Weekly RP Attacks (All Attacks), Change from Baseline, Mean” value [9] was −1.35 and the “Average Severity of Weekly RP Attacks (All Attacks), Change from Baseline, Median” value [9] was −1.35. For the same compound, the “Average Severity … (All Attacks), Mean” value [9] was 2.97, the “Average Severity … (All Attacks), Median” value [9] was 2.97 and the “Average Severity of Weekly RP Attacks (All Attacks), Percent Change from Baseline, Mean” value [10] was −21.20%. For the same compound, the “Average Severity of Weekly RP Attacks (All Attacks), Percent Change from Baseline, Median” value [10] was −21.20%, the “Average Severity of Weekly RP Attacks (All Attacks), Change from Baseline, Mean” value [11] was −1.32 and the “Average Severity of Weekly RP Attacks (All Attacks), Change from Baseline, Median” value [11] was −1.32. For the same compound, the “Average Severity … (All Attacks), Mean” value [11] was 4.90, the “Average Severity … (All Attacks), Median” value [11] was 4.90 and the “Average Severity of Weekly RP Attacks (All Attacks), Percent Change from Baseline, Mean” value [12] was −21.36%. The “Average Severity of Weekly RP Attacks (All Attacks), Percent Change from Baseline, Median” value [12] was −9.57%, the “Average Severity of Weekly RP Attacks (All Attacks), Change from Baseline, Mean” value [13] was −0.84 and the “Average Severity of Weekly RP Attacks (All Attacks), Change from Baseline, Median” value [13] was −0.39. The “Average Severity … (All Attacks), Mean” value [13] was 2.78, the “Average Severity … (All Attacks), Median” value [13] was 2.40 and the “Average Severity of Weekly RP Attacks (All Attacks), Percent Change from Baseline, Mean” value [14] was −23.23%. For the same compound, the “Average Severity of Weekly RP Attacks (All Attacks), Percent Change from Baseline, Median” value [14] was −23.23%, the “Average Severity of Weekly RP Attacks (All Attacks), Change from Baseline, Mean” value [15] was −1.53 and the “Average Severity of Weekly RP Attacks (All Attacks), Change from Baseline, Median” value [15] was −1.53. The “Average Severity … (All Attacks), Mean” value [15] was 5.06, the “Average Severity … (All Attacks), Median” value [15] was 5.06 and the “Average Severity of Weekly RP Attacks (All Attacks), Percent Change from Baseline, Mean” value [16] was −17.99%. The “Average Severity of Weekly RP Attacks (All Attacks), Percent Change from Baseline, Median” value [16] was −7.69%, the “Average Severity of Weekly RP Attacks (All Attacks), Change from Baseline, Mean” value [17] was −0.71 and the “Average Severity of Weekly RP Attacks (All Attacks), Change from Baseline, Median” value [17] was −0.20. The “Average Severity … (All Attacks), Mean” value [17] was 2.55, the “Average Severity … (All Attacks), Median” value [17] was 2.40 and the “Average Severity of Weekly RP Attacks (All Attacks), Change from Baseline, Mean” value [18] was −0.71. The “Average Severity of Weekly RP Attacks (All Attacks), Change from Baseline, Median” value [18] was −0.20, the “Average Severity … (All Attacks), Mean” value [18] was 2.55 and the “Average Severity … (All Attacks), Median” value [18] was 2.40. The “Average Severity of Weekly RP Attacks (All Attacks), Percent Change from Baseline, Mean” value [18] was −17.99%, the “Average Severity of Weekly RP Attacks (All Attacks), Percent Change from Baseline, Median” value [18] was −7.69% and the “Average Severity of Weekly Symptomatic RP Attacks (Mean)” value [19] was 2.79. For the same compound, the “Average Severity of Weekly Symptomatic RP Attacks (Median)” value [19] was 2.40, the “Average Severity of Weekly Symptomatic RP Attacks, Change from Baseline, Mean” value [19] was −0.87 and the “Average Severity of Weekly Symptomatic RP Attacks, Change from Baseline, Median” value [19] was −0.33. The “Average Severity of Weekly Symptomatic RP Attacks, Percent Change from Baseline, Mean” value [19] was −19.22%, the “Average Severity of Weekly Symptomatic RP Attacks, Percent Change from Baseline, Median” value [19] was −12.02% and the “Average Severity of Weekly RP Attacks (All Attacks), Change from Baseline, Mean” value [20] was −0.71. The “Average Severity of Weekly RP Attacks (All Attacks), Change from Baseline, Median” value [20] was −0.20, the “Average Severity … (All Attacks), Mean” value [20] was 2.55 and the “Average Severity … (All Attacks), Median” value [20] was 2.40. For the same compound, the “Average Severity of Weekly RP Attacks (All Attacks), Percent Change from Baseline, Mean” value [20] was −17.99%.
